Activity calls are given as the source filed them. The rule behind the calls is not given here.
Assays:
Plasma [1] = tested on: Plasma
Coagulation factor X [2] = molecular target: T1, Coagulation factor X (Homo sapiens, UniProt P00742); assay: Inhibition of human F10a using S-2765 as substrate at 0.1 uM after 45 mins
Rattus norvegicus [3] = assay: Antithrombotic activity in FeCl3-induced arterial thrombosis Wistar rat model assessed as reduction in thrombus weight at 30 mg/kg, po after 2 hrs; format: functional; parameters: scale not given: the % may be the effect or the level left
Rattus norvegicus [4] = assay: Half life in fasted Wistar rat assessed as 5-Chloro-N-(5-chloropyridin-2-yl)-2-(4-(N-(2-(ethyl-amino)acetyl)-S-methylsulfon imidoyl) benzamido) benzamide at 30 mg/kg, po; format: ADME, organism-based; parameters: dose 30 mg/kg, route oral; details: in vivo
Rattus norvegicus [5] = assay: Antithrombotic activity in FeCl3-induced venous thrombosis Wistar rat model assessed as reduction in thrombus weight at 10 mg/kg, po after 2 hrs; format: functional; parameters: scale not given: the % may be the effect or the level left
Rattus norvegicus [6] = assay: Tmax in fasted Wistar rat assessed as 5-Chloro-N-(5-chloropyridin-2-yl)-2-(4-(N-(2-(ethyl-amino)acetyl)-S-methylsulfon imidoyl) benzamido) benzamide at 30 mg/kg, po; format: ADME, organism-based; parameters: dose 30 mg/kg, route oral; details: in vivo
Rattus norvegicus [7] = assay: Antithrombotic activity in FeCl3-induced arterial thrombosis Wistar rat model assessed as reduction in thrombus weight at 10 mg/kg, po after 2 hrs; format: functional; parameters: scale not given: the % may be the effect or the level left
Rattus norvegicus [8] = assay: AUC (0 to 24 hrs) in fasted Wistar rat assessed as 5-Chloro-N-(5-chloropyridin-2-yl)-2-(4-(N-(2-(ethyl-amino)acetyl)-S-methylsulfon imidoyl) benzamido) benzamide at 30 mg/kg, po; format: ADME, organism-based, Plasma; parameters: time < 24 hr, dose 30 mg/kg, route oral; details: in vivo
Rattus norvegicus [9] = assay: Antithrombotic activity in FeCl3-induced venous thrombosis Wistar rat model assessed as reduction in thrombus weight at 30 mg/kg, po after 2 hrs; format: functional; parameters: scale not given: the % may be the effect or the level left
Plasma [10] = assay: Plasma concentration in fasted Wistar rat at 30 mg/kg, po; format: ADME, organism-based; parameters: dose 30 mg/kg, route oral; details: in vivo
Rattus norvegicus [11] = assay: Cmax in fasted Wistar rat assessed as 5-Chloro-N-(5-chloropyridin-2-yl)-2-(4-(N-(2-(ethyl-amino)acetyl)-S-methylsulfon imidoyl) benzamido) benzamide at 30 mg/kg, po; format: ADME, organism-based; parameters: dose 30 mg/kg, route oral; details: in vivo
CYP3A4 = CYP3A4 (Homo sapiens, UniProt P08684); assay: Inhibition of human CYP3A4 at 10 uM; format: ADME
Chain of CYP3A4 (P08684 whole entry): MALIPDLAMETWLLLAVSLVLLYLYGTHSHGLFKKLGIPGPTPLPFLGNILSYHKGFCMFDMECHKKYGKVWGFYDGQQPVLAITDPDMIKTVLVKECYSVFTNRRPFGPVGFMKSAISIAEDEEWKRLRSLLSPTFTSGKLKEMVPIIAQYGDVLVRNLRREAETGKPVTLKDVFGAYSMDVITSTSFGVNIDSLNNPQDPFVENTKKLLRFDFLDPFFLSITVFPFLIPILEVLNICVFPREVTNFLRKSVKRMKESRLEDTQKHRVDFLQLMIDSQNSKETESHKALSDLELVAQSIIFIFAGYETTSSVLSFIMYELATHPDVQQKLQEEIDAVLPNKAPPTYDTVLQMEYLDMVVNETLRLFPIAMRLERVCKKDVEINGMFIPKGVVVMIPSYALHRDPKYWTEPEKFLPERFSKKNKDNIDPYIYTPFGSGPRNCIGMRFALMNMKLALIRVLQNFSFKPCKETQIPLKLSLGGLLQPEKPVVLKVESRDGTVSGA

[12] = Inhibition of trypsin assessed as S-2222 substrate hydrolysis by microplate reader analysis
Plasma [13] = assay: Anticoagulant activity in rat plasma assessed as concentration required to double prothrombin time; format: functional
Prothrombin = Prothrombin (Homo sapiens, UniProt P00734); assay: Inhibition of thrombin assessed as S-2238 substrate hydrolysis by microplate reader analysis
Coagulation factor X [14] = molecular target: T1, Coagulation factor X; assay: Inhibition of human F10a using S-2765 as substrate after 45 mins
Plasminogen = Plasminogen (Homo sapiens, UniProt P00747); assay: Inhibition of plasmin assessed as S-2302 substrate hydrolysis by microplate reader analysis
Chain of Plasminogen (P00747 97-580 limits assumed): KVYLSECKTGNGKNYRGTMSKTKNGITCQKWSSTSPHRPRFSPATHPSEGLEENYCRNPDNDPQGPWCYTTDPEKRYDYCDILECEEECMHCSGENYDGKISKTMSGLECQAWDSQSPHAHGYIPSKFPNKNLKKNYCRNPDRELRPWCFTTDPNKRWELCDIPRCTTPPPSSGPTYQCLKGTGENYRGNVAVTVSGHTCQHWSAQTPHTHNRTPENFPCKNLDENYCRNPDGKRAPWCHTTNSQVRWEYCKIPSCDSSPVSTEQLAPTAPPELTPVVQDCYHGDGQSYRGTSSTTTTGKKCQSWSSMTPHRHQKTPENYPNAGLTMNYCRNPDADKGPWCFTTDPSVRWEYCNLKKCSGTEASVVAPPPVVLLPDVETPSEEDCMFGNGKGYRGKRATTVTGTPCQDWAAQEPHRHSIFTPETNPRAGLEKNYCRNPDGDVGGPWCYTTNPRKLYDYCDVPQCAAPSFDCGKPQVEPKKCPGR
Chain of Plasminogen (P00747 581-810 limits assumed): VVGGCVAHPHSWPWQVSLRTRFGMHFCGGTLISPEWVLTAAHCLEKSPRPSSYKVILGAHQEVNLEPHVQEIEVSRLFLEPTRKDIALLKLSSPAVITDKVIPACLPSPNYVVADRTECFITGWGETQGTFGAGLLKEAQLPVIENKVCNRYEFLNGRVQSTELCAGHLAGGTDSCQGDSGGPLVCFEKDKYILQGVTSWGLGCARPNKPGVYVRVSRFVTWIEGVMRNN

[15] = molecular target: Tissue-type plasminogen activator (Homo sapiens, UniProt P00750); assay: Inhibition of tPA assessed as S-2288 substrate hydrolysis by microplate reader analysis
Chain of Tissue-type plasminogen activator (P00750 whole entry): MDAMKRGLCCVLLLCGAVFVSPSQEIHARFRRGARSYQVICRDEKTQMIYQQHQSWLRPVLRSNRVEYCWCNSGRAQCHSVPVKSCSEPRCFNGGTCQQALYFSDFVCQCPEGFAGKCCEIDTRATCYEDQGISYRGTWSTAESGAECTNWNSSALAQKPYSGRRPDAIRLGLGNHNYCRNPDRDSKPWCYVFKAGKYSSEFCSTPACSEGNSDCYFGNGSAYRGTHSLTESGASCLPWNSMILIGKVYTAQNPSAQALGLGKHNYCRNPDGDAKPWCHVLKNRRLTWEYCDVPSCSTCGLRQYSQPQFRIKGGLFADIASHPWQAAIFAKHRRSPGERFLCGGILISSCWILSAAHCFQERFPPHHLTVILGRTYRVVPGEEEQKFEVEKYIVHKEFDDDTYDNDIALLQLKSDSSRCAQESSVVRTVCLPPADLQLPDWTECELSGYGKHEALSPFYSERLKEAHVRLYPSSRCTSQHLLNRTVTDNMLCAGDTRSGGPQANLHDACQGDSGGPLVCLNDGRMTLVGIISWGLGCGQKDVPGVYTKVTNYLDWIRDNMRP

[16] = molecular target: Vitamin K-dependent protein C (Homo sapiens, UniProt P04070); assay: Inhibition of activated protein C assessed as S-2366 substrate hydrolysis by microplate reader analysis
Chain of Vitamin K-dependent protein C (P04070 43-197 limits assumed): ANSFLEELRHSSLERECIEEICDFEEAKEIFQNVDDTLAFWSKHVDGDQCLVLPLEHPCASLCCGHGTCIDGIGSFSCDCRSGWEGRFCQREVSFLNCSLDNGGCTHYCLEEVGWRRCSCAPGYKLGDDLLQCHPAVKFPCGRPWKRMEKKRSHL
Chain of Vitamin K-dependent protein C (P04070 212-461 limits assumed): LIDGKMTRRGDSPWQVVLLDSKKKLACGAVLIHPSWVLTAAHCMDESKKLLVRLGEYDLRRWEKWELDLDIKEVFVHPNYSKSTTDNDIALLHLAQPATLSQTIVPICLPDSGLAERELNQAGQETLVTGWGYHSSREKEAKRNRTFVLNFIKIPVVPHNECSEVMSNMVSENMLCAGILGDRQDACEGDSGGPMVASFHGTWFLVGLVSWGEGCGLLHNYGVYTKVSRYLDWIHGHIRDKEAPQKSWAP

Coagulation factor X [17] = molecular target: T1, Coagulation factor X; assay: Inhibition of F10a assessed as S-2765 substrate hydrolysis by microplate reader analysis
Rattus norvegicus [18] = assay: Antithrombotic activity in po dosed FeCl3-induced arterial thrombosis Wistar rat model assessed as reduction in thrombus weight after 2 hrs; format: functional, organism-based
Rattus norvegicus [19] = assay: Antithrombotic activity in po dosed FeCl3-induced venous thrombosis Wistar rat model assessed as reduction in thrombus weight after 2 hrs; format: functional, organism-based

T1 sequence (P00742 41-179 limits assumed): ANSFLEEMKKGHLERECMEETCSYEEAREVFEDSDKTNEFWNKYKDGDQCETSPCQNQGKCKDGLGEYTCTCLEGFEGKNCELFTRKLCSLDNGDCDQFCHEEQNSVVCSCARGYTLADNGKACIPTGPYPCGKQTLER
T1 sequence (P00742 235-488 limits assumed): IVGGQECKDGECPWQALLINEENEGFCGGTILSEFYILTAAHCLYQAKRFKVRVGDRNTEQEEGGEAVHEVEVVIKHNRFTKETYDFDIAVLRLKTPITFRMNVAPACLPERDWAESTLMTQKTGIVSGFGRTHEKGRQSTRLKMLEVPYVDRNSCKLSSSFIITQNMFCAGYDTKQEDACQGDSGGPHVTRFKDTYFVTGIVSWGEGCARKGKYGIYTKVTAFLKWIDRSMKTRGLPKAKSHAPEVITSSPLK

| Structure (SMILES) | 2PT (Plasma [1]) [µM] | inhibition (Coagulation factor X [2]) | 2PT (Plasma [13]) [µM] | further results |
| --- | --- | --- | --- | --- |
| CCN(CC)CC(=O)N=S(C)(=O)c1ccc(C(=O)Nc2ccc(OC)cc2C(=O)Nc2ccc(Cl)cn2)cc1 (configuration not stated) | 1.44 | 56% |  |  |
| CCN(CC)CC(=O)N=S(C)(=O)c1ccc(C(=O)Nc2ccc(Cl)cc2C(=O)Nc2ccc(Cl)cn2)cc1.Cl (configuration not stated) |  |  |  | Activity (Rattus norvegicus [3]): 71%; t1/2 (Rattus norvegicus [4]): 4.79 h; Activity (Rattus norvegicus [5]): 45%; Tmax (Rattus norvegicus [6]): 2.75 h; Activity (Rattus norvegicus [7]): 32%; AUC (Rattus norvegicus [8]): 43510 ng·h/mL; Activity (Rattus norvegicus [9]): 81%; Cp (Plasma [10]): < 100 ng/mL; Cmax (Rattus norvegicus [11]): 3280 ng/mL |
| CCNCC(=O)N=S(C)(=O)c1ccc(C(=O)Nc2ccc(Cl)cc2C(=O)Nc2ccc(Cl)cn2)cc1 (configuration not stated) | 0.81 | 100% | 2.1 | inhibition at 10 µM (CYP3A4): 27%; Ki [12]: > 20000 nM; Ki (Prothrombin): > 20000 nM; IC50 (Coagulation factor X [14]): 2.7 nM; Ki (Plasminogen): > 20000 nM; Ki [15]: > 20000 nM; Ki [16]: > 20000 nM; Ki (Coagulation factor X [17]): 1.5 nM |
| CCN(CC)CC(=O)N=S(C)(=O)c1ccc(C(=O)Nc2ccc(Cl)cc2C(=O)Nc2ccc(Cl)cn2)cc1 (configuration not stated) [listing 1 of 2 here] | 0.68 |  | 0.8 | inhibition at 10 µM (CYP3A4): 18%; Ki [12]: > 20000 nM; Ki (Prothrombin): > 20000 nM; IC50 (Coagulation factor X [14]): 2.1 nM; Ki (Plasminogen): > 20000 nM; Ki [15]: > 20000 nM; Ki [16]: > 20000 nM; Ki (Coagulation factor X [17]): 1.1 nM |
| CCNCC(=O)N=S(C)(=O)c1ccc(C(=O)Nc2c(OC)cc(Cl)cc2C(=O)Nc2ccc(Cl)cn2)cc1 (configuration not stated) | 0.74 | 100% | 1.15 | IC50 (Coagulation factor X [14]): 2.4 nM |
| COc1cc(Cl)cc(C(=O)Nc2ccc(Cl)cn2)c1NC(=O)c1ccc(S(C)(=O)=NC(=O)CN2CCCC2)cc1 (configuration not stated) | 0.53 | 90% | 1.1 | IC50 (Coagulation factor X [14]): 6.4 nM |
| CS(=O)(=NC(=O)CN1CCC(C(N)=O)CC1)c1ccc(C(=O)Nc2ccc(Cl)cc2C(=O)Nc2ccc(Cl)cn2)cc1 (configuration not stated) | 2.54 | 49% |  |  |
| CS(=O)(=O)N=S(C)(=O)c1ccc(C(=O)Nc2ccc(Cl)cc2C(=O)Nc2ccc(Cl)cn2)cc1 (configuration not stated) | 2.6 | 55% |  |  |
| COc1cccc(C(=O)Nc2ccc(Cl)cn2)c1NC(=O)c1ccc(S(C)(=N)=O)cc1 (configuration not stated) |  | inactive |  |  |
| CS(=O)(=NC(=O)CN1CCOCC1)c1ccc(C(=O)Nc2ccc(Cl)cc2C(=O)Nc2ccc(Cl)cn2)cc1 (configuration not stated) |  | 45% |  |  |
| COc1ccc(NC(=O)c2ccc(S(C)(=N)=O)cc2)c(C(=O)Nc2ccc(Cl)cn2)c1 (configuration not stated) |  | 42% |  |  |
| O=C(NC[C@H]1CN(c2ccc(N3CCOCC3=O)cc2)C(=O)O1)c1ccc(Cl)s1 [RIVAROXABAN] | 0.39 |  | 1.5 | Activity (Rattus norvegicus [5]): 63%; Activity (Rattus norvegicus [7]): 50% |
| CS(=O)(=NC(N)=O)c1ccc(C(=O)Nc2ccc(Cl)cc2C(=O)Nc2ccc(Cl)cn2)cc1 (configuration not stated) | 4.1 | 41% |  |  |
| CN(C)CCN=S(C)(=O)c1ccc(C(=O)Nc2ccc(Cl)cc2C(=O)Nc2ccc(Cl)cn2)cc1 (configuration not stated) | 1.14 | 82% | 2.01 | IC50 (Coagulation factor X [14]): 11.6 nM |
| CS(=O)(=NC#N)c1ccc(C(=O)Nc2ccc(Cl)cc2C(=O)Nc2ccc(Cl)cn2)cc1 (configuration not stated) | 2.3 | 76% |  |  |
| CCN(CC)CC(=O)N=S(C)(=O)c1ccc(C(=O)Nc2c(OC)cc(Cl)cc2C(=O)Nc2ccc(Cl)cn2)cc1 (configuration not stated) | 0.92 | 97% | 1.3 | IC50 (Coagulation factor X [14]): 3.4 nM |
| CCN(CC)CCN=S(C)(=O)c1ccc(C(=O)Nc2ccc(Cl)cc2C(=O)Nc2ccc(Cl)cn2)cc1 (configuration not stated) | 1.78 | 77% |  |  |
| CS(=O)(=NCCN1CCCC1)c1ccc(C(=O)Nc2ccc(Cl)cc2C(=O)Nc2ccc(Cl)cn2)cc1 (configuration not stated) | 2.16 | 74% |  |  |
| CS(=O)(=NC(=O)CN1CCC(O)CC1)c1ccc(C(=O)Nc2ccc(Cl)cc2C(=O)Nc2ccc(Cl)cn2)cc1 (configuration not stated) | 2.16 | 69% |  |  |

| Structure (SMILES) | 2PT (Plasma [1]) [µM] | inhibition (Coagulation factor X [2]) | 2PT (Plasma [13]) [µM] | further results |
| --- | --- | --- | --- | --- |
| CC(C)N(CC(=O)N=S(C)(=O)c1ccc(C(=O)Nc2ccc(Cl)cc2C(=O)Nc2ccc(Cl)cn2)cc1)C(C)C (configuration not stated) | 1.45 | 79% |  |  |
| CS(=N)(=O)Cc1ccc(C(=O)Nc2ccc(Cl)cc2C(=O)Nc2ccc(Cl)cn2)cc1 (configuration not stated) |  | inactive |  |  |
| CS(=O)(=NC(=O)CN1CCCC1)c1ccc(C(=O)Nc2ccc(Cl)cc2C(=O)Nc2ccc(Cl)cn2)cc1 (configuration not stated) | 0.46 | 95% | 1.57 | IC50 (Coagulation factor X [14]): 3.2 nM |
| CN1CCCN(CC(=O)N=S(C)(=O)c2ccc(C(=O)Nc3ccc(Cl)cc3C(=O)Nc3ccc(Cl)cn3)cc2)CC1 (configuration not stated) | 1.82 | 75% |  |  |
| CS(=O)(=NC(=O)CNC1CCCC1)c1ccc(C(=O)Nc2ccc(Cl)cc2C(=O)Nc2ccc(Cl)cn2)cc1 (configuration not stated) | 2.26 | 100% |  |  |
| CCN(CC)CC(=O)N=S(C)(=O)c1ccc(C(=O)Nc2ccc(Cl)cc2C(=O)Nc2ccc(Cl)cn2)cc1 (configuration not stated) [listing 2 of 2 here] |  | 100% |  | Activity (Rattus norvegicus [18]): Dose-dependent effect; Activity (Rattus norvegicus [19]): Dose-dependent effect |
| CNCC(=O)N=S(C)(=O)c1ccc(C(=O)Nc2c(OC)cc(Cl)cc2C(=O)Nc2ccc(Cl)cn2)cc1 (configuration not stated) | 0.58 | 92% | 0.9 | IC50 (Coagulation factor X [14]): 5.6 nM |
| COc1cc(Cl)cc(C(=O)Nc2ccc(Cl)cn2)c1NC(=O)c1ccc(S(C)(=N)=O)cc1 (configuration not stated) |  | 69% |  |  |
| N=S(=O)(CCO)c1ccc(C(=O)Nc2ccc(Cl)cc2C(=O)Nc2ccc(Cl)cn2)cc1 (configuration not stated) |  | inactive |  |  |
| CN1CCN(CC(=O)N=S(C)(=O)c2ccc(C(=O)Nc3ccc(Cl)cc3C(=O)Nc3ccc(Cl)cn3)cc2)CC1 (configuration not stated) | 2.03 | 88% |  |  |
| CC(C)NCC(=O)N=S(C)(=O)c1ccc(C(=O)Nc2ccc(Cl)cc2C(=O)Nc2ccc(Cl)cn2)cc1 (configuration not stated) | 0.95 | 97% | 1.9 | IC50 (Coagulation factor X [14]): 4 nM |
| CS(=O)(=NC(=O)CN1CCCCC1)c1ccc(C(=O)Nc2ccc(Cl)cc2C(=O)Nc2ccc(Cl)cn2)cc1 (configuration not stated) | 1.73 | 97% |  |  |
| COCC(=O)N=S(C)(=O)c1ccc(C(=O)Nc2ccc(Cl)cc2C(=O)Nc2ccc(Cl)cn2)cc1 (configuration not stated) | 3 | 48% |  |  |
| CCS(=N)(=O)c1ccc(C(=O)Nc2ccc(Cl)cc2C(=O)Nc2ccc(Cl)cn2)cc1 (configuration not stated) |  | inactive |  |  |
| C[S+](=N)([O-])c1ccc(C(=O)Nc2ccc(Cl)cc2C(=O)Nc2ccc(Cl)cn2)cc1 (configuration not stated) | 7.2 | 76% |  |  |
| CNCC(=O)N=S(C)(=O)c1ccc(C(=O)Nc2ccc(Cl)cc2C(=O)Nc2ccc(Cl)cn2)cc1 (configuration not stated) | 0.77 | 93% | 1.7 | IC50 (Coagulation factor X [14]): 5.4 nM |
| CC(=O)N=[S+](C)([O-])c1ccc(C(=O)Nc2ccc(Cl)cc2C(=O)Nc2ccc(Cl)cn2)cc1 (configuration not stated) | 7 | 61% |  |  |
| CN(C)CC(=O)N=S(C)(=O)c1ccc(C(=O)Nc2ccc(Cl)cc2C(=O)Nc2ccc(Cl)cn2)cc1 (configuration not stated) | 1.2 | 85% | 1.4 | IC50 (Coagulation factor X [14]): 9 nM |

— ChEMBL document CHEMBL2151025, “Synthesis and structure-activity relationship of potent, selective and orally active anthranilamide-based factor Xa inhibitors: application of weakly basic sulfoximine group as novel S4 binding element” (Eur J Med Chem, 2012)
